# Measurements taken from the pKa sets of Baltruschat and Czodrowski (2020).
# Where a SMILES comes first, the peptide text is derived from it.
# Details: acidic group
row,Compound,pKa
1,O=C(c1ccccc1)c1cc[nH]n1,12
2,[O-]c1ccccc1O,11.6
3,O=S(=O)(Nc1nccs1)c1ccccc1,5.73
4,CC(C)(C)c1cc(/C=C/C(=O)[O-])cc(C(C)(C)C)c1O,11.1
5,CN1CC[C@]23c4c5ccc(O)c4O[C@H]2[C@@H](O)C=C[C@H]3[C@H]1[C@H]5O,9.06
6,O=C(O)C[NH+](CCNS(=O)(=O)c1ccccc1)CC(=O)O,2.1
7,CCCCCOc1ccc(C(=O)O)cc1,4.49
8,Cc1cc(Nc2ccc([O-])cc2)cc(C)c1O,10.9
9,Cc1nc(N)c2cn[nH]c2n1,11.3
10,Nc1nc2c(ncn2[C@@H]2C[C@@H](O)[C@H](CO)O2)c(O)[nH+]1,-0.97
11,CC#C/C=C/C(=O)O,4.2
12,CN(C)Cc1cc(CC(C)(C)C)ccc1O,11.5
13,Nn1cnnc1,11.8
14,O=C1COC(=O)C1Br (configuration not stated),2.23
15,N#CC(CC(=O)O)Cc1ccccc1 (configuration not stated),3.91
16,O=[N+]([O-])c1cccc(NC=S)c1,10.3
17,O=Cc1cc(Br)cc([N+](=O)[O-])c1O,4.46
18,CCOC(=O)c1cc(C)[n+](O)c(C)c1,-0.13
19,NC(=S)Nc1ccc(Cl)cc1,12.3
20,Cc1ncc2c(c1O)C(O)OC2 (configuration not stated),8.75
21,Cc1cccc([Se](=O)O)c1,4.8
22,O=C(O)C(CO)[NH2+]Cc1ccccc1O (configuration not stated),2.1
23,S=C(S)N1CCCC1,2.97
24,Oc1c(Cl)c(Cl)cc(Cl)c1C[NH+]1CCOCC1,4.92
25,O=C(O)c1ccccc1-c1ccccc1,3.46
26,O=C(O)[C@H]1C[C@H]2CC[C@@H]1C2,5.08

row,Compound,pKa
1,CC(C)/C=C/C(=O)O,4.7
2,Cc1cc2nnn(O)c2cc1Cl,4.57
3,Cc1cc(Cc2cc([N+](=O)[O-])ccc2[O-])cc(C)c1O,10.9
4,C[C@@H]1CC[C@H](C)[C@H]1C(=O)O,4.69
5,Cc1ccc2[nH]c(CO)nc2c1,11.5
6,O[n+]1c2ccccc2nc2ccccc21,1.12
7,Nc1ncc2[nH]c(-c3ccccc3)nc2n1,9.2
8,Nc1nc2nc[nH]c2c(O)[nH+]1,3.25
9,CCOc1cccc(C(=O)O)c1C,3.73
10,CC1NCCc2c1[nH]c1ccc(N)cc21 (configuration not stated),16
11,c1ccc(-c2c[nH]c(-c3ccccc3)n2)cc1,12.6
12,COc1cc(S(C)=O)ccc1-c1nc2ncncc2[nH]1 (configuration not stated),8.91
13,O=C(O)CC(c1ccccc1)c1ccccc1Cl (configuration not stated),4.7
14,O=C(S)c1ccccc1,2.44
15,CC[NH+](CC)Cc1cc([N+](=O)[O-])c2ccccc2c1O,2.82
16,O=C(O)[C@@H]1O[C@H](Oc2ccc3[nH+]c(O)ccc3c2)[C@@H](O)[C@H](O)[C@H]1O,3.07
17,CC1(C)CC(=O)C(=NO)C(=O)C1,5.4
18,S=C(Nc1ccccc1)c1ccccc1,10.9
19,O=C(O)C#CCl,1.89
20,[NH3+][C@@H](Cc1c[nH]c[nH+]1)C(=O)N[C@@H](Cc1c[nH]c[nH+]1)C(=O)O,2.25
21,O=Cc1ccccc1O,8.36
22,O=C(O)C[NH+](CC(=O)O)Cc1cc([N+](=O)[O-])ccc1O,2.4
23,[O-][n+]1ccc(O)cc1,5.76
24,CC(CC(=O)O)C(N)=O (configuration not stated),4.59
25,CC(C)COc1ccc(C(=O)O)cc1,4.48
26,N#CC(C#N)Cc1ccc(Cl)cc1,11.5

row,Compound,pKa
1,N#CCC[n+]1cccc(C(N)=O)c1.[Br-],13.2
2,C#CCCC(=O)O,4.2
3,O=C(O)Cc1ccc(-c2ccccc2)cc1,4.46
4,Cc1ccc(C(=O)S)cc1,2.59
5,Cc1cc(S(=O)(=O)N(CCO)CCO)cc(C)c1O,8.25
6,C[n+]1ccccc1C(C)(O)O,10.6
7,S=C(Nc1ccc(Cl)cc1)c1ccc(Cl)cc1,10.2
8,CN(CCC[NH+](C)C)C(=O)/C=N/O,8.68
9,CC(=S)Nc1ccc(Cl)cc1,11.1
10,O=C(O)C[C@]1(O)C[C@@H]2C=C[C@H]1C2,4.36
11,Cc1cccnc1/C=N/O,10.5
12,CC(=O)CC(=O)C(C)C,9.46
13,NC(=O)C(N)CC(=O)O (configuration not stated),7.95
14,CC1(C)CC=CC(=O)C1,12.4
15,CC(=O)ONc1cc(=O)n(C)c(=O)n1C,7.01
16,O=C(O)c1cc2cc(Cn3cc[nH+]c3)ccc2o1,2.38
17,CC(=O)NCCS,9.5
18,O=P([O-])([O-])C([NH2+]Cc1ccccn1)c1ccccc1O (configuration not stated),10.2
19,CC(=O)C(C(C)=O)c1ccccc1,9.32
20,NS(=O)(=O)c1ccc(Cl)cc1,9.5
21,O=C(O)/C=C/c1ccoc1,4.31
22,Cc1cn([C@@H]2C[C@@H](O)[C@H](CO)O2)c(=O)[nH]c1=S,8.8
23,Cc1ccc(C)c(O)c1,10.4
24,CCCC[Se](=O)O,5.29
25,CS(=O)O,2.35

# Same assay, conditions: basic group
row,Compound,pKa
1,COc1c2ccccc2nc2ccccc12,7
2,C[N+](C)(C)CCN,7.34
3,CC(C)(N)CN,10
4,COc1ccc(/C=N/c2ncc3nc[nH]c3n2)cc1,3.86
5,CN1CC[C@]23c4c5ccc(O)c4O[C@H]2[C@@H](O)C=C[C@H]3[C@H]1[C@H]5O,7.13
6,O=C(CN1CCCCC1)Nc1ccccc1,7.85
7,Cn1cncc1C[C@H](NC(=O)CC[NH3+])C(=O)[O-],7.08
8,CCCCCCN(CCO)CC(O)CC (configuration not stated),9.1
9,CC1NOCc2ccccc21 (configuration not stated),3.7
10,CCCCCCCCCCN,10.6
11,Cc1nc(N)c2cn[nH]c2n1,5.41
12,C1CCN(CC[NH+]2CCCC2)C1,6.3
13,CC(C[NH3+])/C(N)=N/O (configuration not stated),3.65
14,Nn1cnnc1,2.53
15,CNCCCNC,10.7
16,c1cnc2c(c1)ccc1ccc[nH+]c12,2.04
17,CC1CNCc2ccccc2OCCOc2ccccc2C[NH2+]1 (configuration not stated),6.01
18,CN(C)c1ccc[nH+]c1,-1.91
19,NCCC[NH3+],8.77
20,COc1ccc2c3c1O[C@H]1CCC[C@H]4[C@H](NCC[C@]314)[C@@H]2O,9.17
21,c1cnc2c(c1)c1c(c3cccnc32)CCCC1,5.3
22,NCC(=O)NCC(=O)NCC(=O)N1CCC[C@H]1C(=O)[O-] (H-GGGP-OH),8.04
23,O=[N+]([O-])c1cc(-c2ccccc2)nnc1NCCN1CCOCC1,6.56
24,CC[C@@H]1C(=O)OC[C@@H]1Cc1cncn1C,6.99

row,Compound,pKa
1,Cc1cc(Br)c(N)c(Br)c1,0.69
2,CCC(N)C(=O)[O-] (configuration not stated),9.67
3,Cc1ncc2c(c1O)C(O)OC2 (configuration not stated),4.3
4,Nc1ccc(Oc2ccc(N)cc2)cc1,5.18
5,Nc1cccc(-c2ccccc2)c1,4.28
6,Cc1nc2ccccc2nc1[O-],9.88
7,NC(=S)C1(N)CCCCC1,7.23
8,CN(C)Cc1ccc(NC(=O)/C=N/[O-])cc1,9.56
9,NCCC[NH2+]CCCC[NH3+],8.35
10,CC1CCCNC1 (configuration not stated),10.9
11,OC(CN1CCOCC1)CN1CCOCC1,6.98
12,Cc1cc(Cn2[nH+]c(C)cc2C)n[nH]1,1.2
13,C=CCN(CC=C)CC=C,8.31
14,CCOCCNc1cccc(OC)c1,3.67
15,NCC[NH3+],7.14
16,Cc1ccc2[nH]c(CO)nc2c1,5.64
17,CC[NH+](CC)CCN=C(c1ccccc1C)c1ccccc1C,2.8
18,C#CC(C)(C)NC(C)(C)CC,9
19,CC(C)CN[C@H](c1ccccc1)[C@H](O)c1ccccc1,11.3
20,[O-]c1ncnc2ccccc12,9.81
21,Nc1cccc2c1nnn2[C@@H]1C[C@@H](O)[C@H](CO)O1,1.9
22,Nc1ncc2[nH]c(-c3ccccc3)nc2n1,3.98
23,Cc1ccncc1,6.15
24,COc1cc(S(C)=O)ccc1-c1nc2ncncc2[nH]1 (configuration not stated),2.69

row,Compound,pKa
1,NCc1ccc(Cl)cc1,9.24
2,CCCc1ccc([C@@H]2CCC[NH+]2C)cn1,3.65
3,CC1(C)S[C@H]2[C@@H](NC(=O)Cc3ccc(N)cc3)C(=O)N2[C@@H]1C(=O)[O-],4.6
4,C(C[NH2+]CCc1nnn[n-]1)NCCc1nnn[n-]1,6.3
5,Cc1n[nH]c2c(NCc3ccco3)ncnc12,4.84
6,CC[NH+](CC)CCCCCCNc1c2ccc(Cl)cc2nc2ccc(OC)cc12,8.12
7,Cc1cccc(N)n1,7.4
8,CC(N)CCCc1ccccc1 (configuration not stated),9.99
9,NCC(O)C[NH3+],8.19
10,CCN(C)N(CC)CC,7.3
11,CCCCCCCCCCNc1ccccc1,4.56
12,C1CNCCNCCN1,10.6
13,N=C(c1ccccc1)c1ccccc1,6.82
14,c1ccc2c(c1)CCN2,5.49
15,c1ccc2[nH]c(-c3ccncc3)nc2c1,10.8
16,CCN1CCCC1CNS(=O)(=O)c1ccc(OC)c(OC)c1OC (configuration not stated),8.7
17,O=Cc1ccc(-c2ncc(-c3ccccc3)o2)cc1,0.02
18,NNCCOc1ccccc1,6.8
19,CCC1CN1CC (configuration not stated),8.19
20,CC[NH+](CC)CCCC(C)Nc1cc(OC)cc2ccc[nH+]c12 (configuration not stated),-1.33
21,OCCc1cnc(P(c2ncc(CCO)[nH]2)c2ncc(CCO)[nH]2)[nH]1,7.7
22,CN(c1ccccc1)C1CCCCC1,6.35
23,O=[N+]([O-])c1ccc(O)c2ncccc12,2.88
24,CC(C)c1ccncc1,6.02

row,Compound,pKa
1,NC(=O)C([NH3+])Cc1c[nH]cn1 (configuration not stated),5.78
2,CN(C)CCC/N=C(\c1ccccc1)c1ccc2ccccc2c1,9.2
3,Cc1ccc(C(=O)S)cc1,-5.19
4,COc1ccc(CN)c([N+](=O)[O-])c1,8.77
5,Nc1cccnc1,6.08
6,Cc1cc(C)nc([S-])n1,8.5
7,NCCCCCc1ccccc1,10.5
8,CCOCCn1c(CN2CCCN(CCCCn3cc(C(=O)[O-])cn3)CC2)nc2ccccc21,9.1
9,c1ccc(-c2ccc(NCCN3CCOCC3)nn2)cc1,6.74
10,CCCCN/C(C)=N/N(C)C,10.4
11,NNc1nncc2ccccc12,7.25
12,O=[N+]([O-])c1cccc2nc3ccccc3c(NCCO)c12,7.2
13,CCCCNc1cc[nH+]c([O-])n1,4.69
14,Cc1cc(C)c(C)c(N)c1C,4.3
15,O=CN1CCNCC1,7.98
16,CCOCCn1c(N2CCC[NH+](CCCCn3cc(C(=O)[O-])cn3)CC2)nc2ccccc21,5.1
17,C[n+]1ccc([O-])nc1[O-],9.73
18,C[NH+](C)c1ccc(/C=C/c2ccncc2)cc1,3.42
19,[O-]c1ccnc([S-])n1,12.7
20,Cc1ccc2c(ccn2C)c1,-2.15
21,Cc1ccccc1/C(=N\CCC[NH+](C)C)c1cccc2ccccc12,4.14
22,Cc1cccnc1C,6.57
23,CCC(C)NC(C)CC (configuration not stated),10.9
